Assay results as given in PubChem BioAssay (NCI).
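Growth conditions: 96-well plates. Treatment: test compound, 48 hours, 5 concentrations. Analysis: linear interpolation between bracketing concentrations; unreached endpoints set to highest concentration. The concentration for full growth arrest is given as TGI.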

Assays:
Test in all cases: DTP human tumour cell line panel, 48 h
RXF 393 renal = test system: RXF 393 renal
KM12 colon = test system: KM12 colon
NCI-H23 lung = test system: NCI-H23 lung
OVCAR-3 ovarian = test system: OVCAR-3 ovarian
HS 578T breast = test system: HS 578T breast
SR leukemia = test system: SR leukemia
TK-10 renal = test system: TK-10 renal
SF-539 CNS = test system: SF-539 CNS
SF-268 CNS = test system: SF-268 CNS
MOLT-4 leukemia = test system: MOLT-4 leukemia
BT-549 breast = test system: BT-549 breast
UACC-257 melanoma = test system: UACC-257 melanoma
SK-MEL-28 melanoma = test system: SK-MEL-28 melanoma
NCI-H226 lung = test system: NCI-H226 lung
UACC-62 melanoma = test system: UACC-62 melanoma
CCRF-CEM leukemia = test system: CCRF-CEM leukemia
T-47D breast = test system: T-47D breast
M14 melanoma = test system: M14 melanoma
MALME-3M melanoma = test system: MALME-3M melanoma
DU-145 prostate = test system: DU-145 prostate
SK-MEL-2 melanoma = test system: SK-MEL-2 melanoma
NCI-H460 lung = test system: NCI-H460 lung
ACHN renal = test system: ACHN renal
EKVX NSCLC = test system: EKVX NSCLC
SNB-75 CNS = test system: SNB-75 CNS
MDA-MB-231 breast = test system: MDA-MB-231 breast
HL-60(TB) leukemia = test system: HL-60(TB) leukemia
SK-OV-3 ovarian = test system: SK-OV-3 ovarian
MDA-N = test system: MDA-N
A498 renal = test system: A498 renal
HCC-2998 colon = test system: HCC-2998 colon
LOX IMVI melanoma = test system: LOX IMVI melanoma
NCI-H522 lung = test system: NCI-H522 lung
OVCAR-5 ovarian = test system: OVCAR-5 ovarian
HT29 colon = test system: HT29 colon
MDA-MB-435 = test system: MDA-MB-435
HCT-116 colon = test system: HCT-116 colon
SNB-19 CNS = test system: SNB-19 CNS
UO-31 renal = test system: UO-31 renal
K-562 leukemia = test system: K-562 leukemia
HCT-15 colon = test system: HCT-15 colon
MCF7 breast = test system: MCF7 breast
HOP-62 NSCLC = test system: HOP-62 NSCLC
RPMI-8226 leukemia = test system: RPMI-8226 leukemia
SN12C renal = test system: SN12C renal
U251 CNS = test system: U251 CNS
SW-620 colon = test system: SW-620 colon
NCI/ADR-RES ovarian = test system: NCI/ADR-RES ovarian
CAKI-1 renal = test system: CAKI-1 renal
COLO 205 colon = test system: COLO 205 colon
OVCAR-4 ovarian = test system: OVCAR-4 ovarian
IGROV1 ovarian = test system: IGROV1 ovarian
A549 NSCLC = test system: A549 NSCLC
SK-MEL-5 melanoma = test system: SK-MEL-5 melanoma
PC-3 prostate = test system: PC-3 prostate
OVCAR-8 ovarian = test system: OVCAR-8 ovarian
786-0 renal = test system: 786-0 renal
HOP-92 NSCLC = test system: HOP-92 NSCLC
SF-295 CNS = test system: SF-295 CNS

Structure (SMILES): CCOC(=O)NC(Nc1ncccn1)(C(F)(F)F)C(F)(F)F
- TGI (RXF 393 renal): > 100 µM
- TGI (KM12 colon): > 100 µM
- TGI (NCI-H23 lung): > 100 µM
- TGI (OVCAR-3 ovarian): > 100 µM
- TGI (HS 578T breast): > 100 µM
- TGI (SR leukemia): > 100 µM
- TGI (TK-10 renal): > 100 µM
- TGI (SF-539 CNS): > 100 µM
- TGI (SF-268 CNS): > 100 µM
- TGI (MOLT-4 leukemia): > 100 µM
- TGI (BT-549 breast): > 100 µM
- TGI (UACC-257 melanoma): > 100 µM
- TGI (SK-MEL-28 melanoma): > 100 µM
- TGI (NCI-H226 lung): > 100 µM
- TGI (UACC-62 melanoma): > 100 µM
- TGI (CCRF-CEM leukemia): > 100 µM
- TGI (T-47D breast): > 100 µM
- TGI (M14 melanoma): > 100 µM
- TGI (MALME-3M melanoma): > 100 µM
- TGI (DU-145 prostate): > 100 µM
- TGI (SK-MEL-2 melanoma): > 100 µM
- TGI (NCI-H460 lung): > 100 µM
- TGI (ACHN renal): > 100 µM
- TGI (EKVX NSCLC): > 100 µM
- TGI (SNB-75 CNS): > 100 µM
- TGI (MDA-MB-231 breast): > 100 µM
- TGI (HL-60(TB) leukemia): > 100 µM
- TGI (SK-OV-3 ovarian): > 100 µM
- TGI (MDA-N): > 100 µM
- TGI (A498 renal): > 100 µM
- TGI (HCC-2998 colon): > 100 µM
- TGI (LOX IMVI melanoma): > 100 µM
- TGI (NCI-H522 lung): > 100 µM
- TGI (OVCAR-5 ovarian): > 100 µM
- TGI (HT29 colon): > 100 µM
- TGI (MDA-MB-435): > 100 µM
- TGI (HCT-116 colon): > 100 µM
- TGI (SNB-19 CNS): > 100 µM
- TGI (UO-31 renal): > 100 µM
- TGI (K-562 leukemia): > 100 µM
- TGI (HCT-15 colon): > 100 µM
- TGI (MCF7 breast): > 100 µM
- TGI (HOP-62 NSCLC): > 100 µM
- TGI (RPMI-8226 leukemia): > 100 µM
- TGI (SN12C renal): > 100 µM
- TGI (U251 CNS): > 100 µM

Structure (SMILES): COc1cc2c(/C=C3/C(=O)N(C)c4ccccc43)c(Cl)[nH]c2cc1C
- TGI (RXF 393 renal): 70.5 µM
- TGI (SW-620 colon): > 100 µM
- TGI (NCI-H23 lung): 1.55 µM
- TGI (OVCAR-3 ovarian): 0.929 µM
- TGI (HS 578T breast): > 100 µM
- TGI (SR leukemia): 10.2 µM
- TGI (NCI/ADR-RES ovarian): 2.67 µM
- TGI (TK-10 renal): 5.16 µM
- TGI (CAKI-1 renal): > 52.8 µM
- TGI (SF-539 CNS): 0.0807 µM
- TGI (SF-268 CNS): 3.09 µM
- TGI (MOLT-4 leukemia): 11.8 µM
- TGI (BT-549 breast): 3.64 µM
- TGI (UACC-257 melanoma): 97.6 µM
- TGI (SK-MEL-28 melanoma): > 100 µM
- TGI (COLO 205 colon): 0.579 µM
- TGI (NCI-H226 lung): > 100 µM
- TGI (UACC-62 melanoma): > 52.3 µM
- TGI (CCRF-CEM leukemia): > 26.8 µM
- TGI (T-47D breast): > 100 µM
- TGI (M14 melanoma): 11.5 µM
- TGI (OVCAR-4 ovarian): 4.14 µM
- TGI (DU-145 prostate): 3.44 µM
- TGI (SK-MEL-2 melanoma): 5.31 µM
- TGI (NCI-H460 lung): 1.36 µM
- TGI (ACHN renal): > 55.9 µM
- TGI (EKVX NSCLC): > 47.2 µM
- TGI (SNB-75 CNS): 46.2 µM
- TGI (IGROV1 ovarian): 2.7 µM
- TGI (MDA-MB-231 breast): 3.68 µM
- TGI (HL-60(TB) leukemia): 0.666 µM
- TGI (SK-OV-3 ovarian): 0.629 µM
- TGI (A549 NSCLC): 17 µM
- TGI (SK-MEL-5 melanoma): 7.41 µM
- TGI (MDA-N): 0.153 µM
- TGI (A498 renal): > 50.6 µM
- TGI (HCC-2998 colon): 0.317 µM
- TGI (PC-3 prostate): 13 µM
- TGI (LOX IMVI melanoma): 11.4 µM
- TGI (NCI-H522 lung): 0.518 µM
- TGI (OVCAR-5 ovarian): > 57.2 µM
- TGI (OVCAR-8 ovarian): 3.77 µM
- TGI (MDA-MB-435): 0.038 µM
- TGI (HCT-116 colon): 7.02 µM
- TGI (786-0 renal): 16.5 µM
- TGI (SNB-19 CNS): 14.2 µM
- TGI (UO-31 renal): > 58.3 µM
- TGI (HOP-92 NSCLC): > 50.1 µM
- TGI (HCT-15 colon): 6.34 µM
- TGI (MCF7 breast): > 23.5 µM
- TGI (HOP-62 NSCLC): 3.56 µM
- TGI (RPMI-8226 leukemia): 7.79 µM
- TGI (SN12C renal): 7.99 µM
- TGI (U251 CNS): 1.57 µM
- TGI (SF-295 CNS): 3.44 µM
